Where a name gives a salt, the structure may show the parent alone. Read-outs that look alike come from different tables or passages of the source. Values belong to the molecule of their own block, whether it stands above or below them.
How the values were obtained:
SUV39H2 [1] = biological target: T1, SUV39H2 (Homo sapiens (Human), UniProt Q9H5I1); assay: biochemical; format: biochemical; settings: 3H-SAM 100 nM, H3 Histone Peptide 350 nM, room temperature 3 hours
Method: Assay buffer (4 μL) was added into all the wells, including test compound and control wells (except for Sinefungin control wells), using the Multidrop Combi. The plate was centrifuged at 1000 rpm for 1 min. […] SUV39H2 (8 μL, final conc: optimized for each lot of the enzyme based on specific activity) was added by using the Multidrop Combi. The assay plate was centrifuged at 1000 rpm for 1 min. Assay buffer was used as background control, and incubated at room temperature for 3 hours. The reaction was stopped with 20 μL of 2.5 mg/mL Streptavidin SPA beads (final conc. 50 μg/well) in buffer using the Multidrop Combi and centrifuged for 1 min. The plate was loaded into the Trilux-Microbeta counter and a delayed read of 10 hours was made. The radioactive signal was measured at 1 min/well. Sinefungin and the internal standard compound were used as tool compounds to determine assay performance.
• The following calculations were made using the obtained CPM raw data: Software used: XLFit from IDBS.
For each test plate the following results were calculated: • Average, Standard Deviation, and % CV of Background Controls • Average, Standard Deviation, and % CV of Positive Controls • Z′ value of the plate • IC50 values of standard and test compounds (in nM) • R^2 value of fitted concentration response curve • Hill slope coefficient of fitted concentration response curve • Signal to Noise Ratio

A549 = assay: Cell-based assay, anti-proliferative activity (Cell Counting Kit-8, 72 hours); settings: Homo sapiens
Method in brief: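 After compound exposure of cells in 96-well plates, growth was measured colorimetrically and converted into IC50 values.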

CCD-18Co = assay: as above; settings: Homo sapiens, read-out: IC50 (μM) CCD-18Co
Method in brief: (§1)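 Seed cells in 96-well plates; add serially diluted inhibitor (1.5625 to 100 micro-M plus vehicle); incubate 72 hours; quantify viable growth by CCK-8 and calculate IC50.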

HCT-116 = assay: as above; settings: Homo sapiens, read-out: IC50 (μM) HCT-116
Method in brief: as §1

HFL1 = assay: as above; settings: Homo sapiens, read-out: IC50 (μM) HFL1
Method in brief: as §1

PC14 = assay: as above; settings: Homo sapiens, read-out: IC50 (μM) PC14
Method in brief: as §1

SUV39H2 [2] = biological target: T1, SUV39H2; settings: read-out: IC50 (μM) Suv 39H2 assay; enzyme assay
[3] = A549 cells, 72 hours exposure, Cell Counting Kit-8, read-out: A549 IC50
[4] = A549 cells, Cell Counting Kit-8, 72 hours, read-out: IC50 (μM) A549
[5] = CCD-18Co cells, Cell Counting Kit-8, 72 hours
[6] = HCT-116 cells, Cell Counting Kit-8, 72 hours
[7] = HFL1 cells, Cell Counting Kit-8, 72 hours
[8] = PC-14, PC14 cells, Cell Counting Kit-8, 72 hours

T1 sequence (Q9H5I1 whole entry): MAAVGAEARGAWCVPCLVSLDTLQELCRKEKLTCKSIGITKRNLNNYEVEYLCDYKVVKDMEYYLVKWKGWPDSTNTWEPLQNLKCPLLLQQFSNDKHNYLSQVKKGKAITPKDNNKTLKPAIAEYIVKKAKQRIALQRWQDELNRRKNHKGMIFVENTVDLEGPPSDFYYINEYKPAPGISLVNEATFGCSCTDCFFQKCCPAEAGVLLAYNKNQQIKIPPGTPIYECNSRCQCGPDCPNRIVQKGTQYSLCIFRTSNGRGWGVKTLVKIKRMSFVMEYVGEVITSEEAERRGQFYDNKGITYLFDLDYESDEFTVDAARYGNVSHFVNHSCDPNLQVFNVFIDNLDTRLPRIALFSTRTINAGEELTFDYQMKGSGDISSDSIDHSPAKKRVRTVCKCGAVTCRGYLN

SMILES: COc1cc(OC)c(-c2cn3ccc(N4CCC(C(=O)Nc5ccccc5)CC4)cc3n2)cc1Cl [Example 456, 1-(2-(5-chloro-2,4-dimethoxyphenyl)imidazo[1,2-a]pyridin-7-yl)-N-phenylpiperidine-4-carboxamide]
- IC50 (SUV39H2 [1]): 25.5 nM
- IC50 (A549; [3]): 0.63 µM

SMILES: COc1cc(OC)c(-c2cn3ccc(N4CCN(c5ncnc(N(C)C)n5)CC4)cc3n2)cc1Cl [Example 450, 4-(4-(2-(5-chloro-2,4-dimethoxyphenyl)imidazo[1,2-a]pyridin-7-yl)piperazin-1-yl)-N,N-dimethyl-1,3,5-triazin-2-amine]
- IC50 (SUV39H2 [1]): 33.6 nM
- IC50 (A549; [3]): 0.73 µM

SMILES: COc1cc(OC)c(-c2cn3ccc(N4CCN(c5ccnc(N6CCC(N)C6)n5)CC4)cc3n2)cc1Cl (stereo not drawn) [Example 354, 1-(4-(4-(2-(5-chloro-2,4-dimethoxyphenyl)imidazo[1,2-a]pyridin-7-yl)piperazin-1-yl)pyrimidin-2-yl)pyrrolidin-3-amine]
- IC50 (SUV39H2 [1]): 12.9 nM
- IC50 (A549; [3]): 0.49 µM

SMILES: CNC1CCN(c2nccc(N3CCN(c4ccn5cc(-c6cc(Cl)c(OC)cc6OC)nc5c4)CC3)n2)C1 (stereo not drawn) [Example 372, 1-(4-(4-(2-(5-chloro-2,4-dimethoxyphenyl)imidazo[1,2-a]pyridine-7-yl)piperazin-1-yl)pyrimidin-2-yl)-N-methylpyrrolidin-3-amine trihydrochloride]
- IC50 (SUV39H2 [1]): 18.3 nM
- IC50 (A549; A549, 72 h, read-out: A549 IC50): 0.7 µM

SMILES: COc1cc(OC)c(-c2cn3ccc(N[C@H]4CC[C@H](Nc5cncnc5)CC4)cc3n2)cc1Cl [Example 337, (1r,4r)-N^1-(2-(5-chloro-2,4-dimethoxyphenyl)imidazo[1,2-a]pyridin-7-yl)-N^4-(pyrimidin-5-yl)cyclohexane-1,4-diamine]
- IC50 (SUV39H2 [1]): 79.9 nM
- IC50 (A549; [3]): 0.83 µM

SMILES: COc1cc(OC)c(-c2cn3ccc(N[C@H]4C[C@H]5CC[C@@H](C4)N5CC4CCCCC4)cc3n2)cc1Cl [Example 434, 2-(5-chloro-2,4-dimethoxyphenyl)-N-((1R,3r,5S)-8-(cyclohexylmethyl)-8-azabicyclo[3.2.1]octan-3-yl)imidazo[1,2-a]pyridin-7-amine]
- IC50 (SUV39H2 [1]): 88.7 nM

SMILES: COc1cc(OC)c(-c2cn3ccc(N[C@H]4C[C@H]5CC[C@@H](C4)N5CC(C)(C)C)cc3n2)cc1Cl [Example 452, 2-(5-chloro-2,4-dimethoxyphenyl)-N-((1R,3r,5S)-8-neopentyl-8-azabicyclo[3.2.1]octan-3-yl)imidazo[1,2-a]pyridin-7-amine]
- IC50 (SUV39H2 [1]): 42.6 nM
- IC50 (A549; [3]): 0.83 µM

SMILES: COc1cc(OC)c(-c2cn3ccc(N[C@H]4C[C@H]5CC[C@@H](C4)N5Cc4ccncc4)cc3n2)cc1Cl [Example 448, 2-(5-chloro-2,4-dimethoxyphenyl)-N-((1R,3r,5S)-8-(pyridin-4-ylmethyl)-8-azabicyclo[3.2.1]octan-3-yl)imidazo[1,2-a]pyridin-7-amine]
- IC50 (SUV39H2 [1]): 22.6 nM
- IC50 (A549; [3]): 0.34 µM

SMILES: COc1cc(OC)c(-c2cn3cnc(N4CCN(S(=O)(=O)C5CC5)CC4)cc3n2)cc1Cl [Example 390, 2-(5-chloro-2,4-dimethoxyphenyl)-7-(4-(cyclopropylsulfonyl)piperazin-1-yl)imidazo[1,2-c]pyrimidine]
- IC50 (SUV39H2 [1]): 99.6 nM
- IC50 (A549; [3]): 0.39 µM

SMILES: COc1cc(OC)c(-c2cn3ccc(N[C@H]4C[C@H]5CC[C@@H](C4)N5C(=O)OC(C)(C)C)cc3n2)cc1Cl [Example 444, (1R,3r,5S)-tert-butyl 3-((2-(5-chloro-2,4-dimethoxyphenyl)imidazo[1,2-a]pyridin-7-yl)amino)-8-azabicyclo[3.2.1]octane-8-carboxylate]
- IC50 (SUV39H2 [1]): 78 nM
- IC50 (A549; [3]): 0.78 µM

SMILES: COc1cc(OC)c(-c2cn3ccc(N4CCN(c5ccnc(NCCO)n5)CC4)cc3n2)cc1Cl [Example 334, 2-((4-(4-(2-(5-chloro-2,4-dimethoxyphenyl)imidazo[1,2-a]pyridin-7-yl)piperazin-1-yl)pyrimidin-2-yl)amino)ethanol]
- IC50 (SUV39H2 [1]): 21.3 nM

SMILES: COc1cc(OC)c(-c2cn3ccc(N[C@H]4CC[C@@H](N(C)Cc5ccccc5F)CC4)cc3n2)cc1Cl [Example 347, bis(2,2,2-trifluoroacetate)]
- IC50 (SUV39H2 [1]): 24.8 nM

- IC50 (SUV39H2 [1]): 35.7 nM
SMILES: COc1cc(OC)c(-c2cn3ccc(N4CCN(Cc5cncc(C#N)c5)CC4)cc3n2)cc1Cl [Example 339, 5-((4-(2-(5-chloro-2,4-dimethoxyphenyl)imidazo[1,2-a]pyridin-7-yl)piperazin-1-yl)methyl)nicotinonitrile]

SMILES: COc1cc(OC)c(-c2cn3ccc(N4CCN(c5cnc(N6CCC(NS(=O)(=O)C7CC7)CC6)nc5)CC4)cc3n2)cc1Cl [Example 393, N-(1-(5-(4-(2-(5-chloro-2,4-dimethoxyphenyl)imidazo[1,2-a]pyridin-7-yl)piperazin-1-yl)pyrimidin-2-yl)piperidin-4-yl)cyclopropanesulfonamide]
- IC50 (SUV39H2 [1]): 28.3 nM

SMILES: COc1cc(OC)c(-c2cn3ccc(N[C@H]4CC[C@@H](N(C)Cc5ccc(F)cc5)CC4)cc3n2)cc1Cl [Example 342]
- IC50 (SUV39H2 [1]): 38.8 nM

SMILES: COc1cc(OC)c(-c2cn3cc(NCCN)c(C)cc3n2)cc1Cl [Example 78, N^1-(2-(5-chloro-2,4-dimethoxyphenyl)-7-methylimidazo[1,2-a]pyridin-6-yl)ethane-1,2-diamine]
- IC50 (A549; A549, 72 h, read-out: IC50 (μM) A549): 6.3 µM
- IC50 (CCD-18Co; CCD-18Co, 72 h): 5.7 µM
- IC50 (HCT-116; HCT-116, 72 h): 5.6 µM
- IC50 (HFL1; HFL1, 72 h): 2.7 µM
- IC50 (PC14; PC-14, 72 h): 6.1 µM
- IC50 (SUV39H2 [2]): 0.00431 µM

SMILES: COc1cc(OC)c(-c2cn3ccc(NC(=O)[C@H](C)NC(=O)OC(C)(C)C)cc3n2)cc1Cl [Example 253, (S)-tert-butyl (1-((2-(5-chloro-2,4-dimethoxyphenyl)imidazo[1,2-a]-pyridin-7-yl)amino)-1-oxopropan-2-yl)carbamate]
- IC50 (A549; A549 cells, 72 hours, Cell Counting Kit-8, read-out: IC50 (μM) A549): 10 µM
- IC50 (CCD-18Co; CCD-18Co cells, 72 hours, Cell Counting Kit-8): 6.7 µM
- IC50 (HCT-116; HCT-116 cells, 72 hours, Cell Counting Kit-8): 10 µM
- IC50 (HFL1; HFL1 cells, 72 hours, Cell Counting Kit-8): 6.5 µM
- IC50 (PC14; PC-14, PC14 cells, 72 hours, Cell Counting Kit-8): 6.9 µM
- IC50 (SUV39H2 [2]): 0.0582 µM

SMILES: CCOC(=O)CCN1CC=C(c2ccn3cc(-c4cc(Cl)c(OC)cc4OC)nc3c2)CC1 [Example 140, ethyl 3-(4-(2-(5-chloro-2,4-dimethoxyphenyl)imidazo[1,2-a]pyridin-7-yl)-5,6-dihydropyridin-1(2H)-yl)propanoate]
- IC50 (A549; [4]): 25 µM
- IC50 (CCD-18Co; [5]): 56 µM
- IC50 (HCT-116; [6]): 16 µM
- IC50 (HFL1; [7]): 27 µM
- IC50 (PC14; [8]): 12 µM
- IC50 (SUV39H2 [2]): 0.0578 µM

SMILES: CCCCCNC1CCN(c2ccn3cc(-c4cc(Cl)c(OC)cc4OCCCN(C)C)nc3c2)CC1 [Example 165, 1-(2-{5-chloro-2-[3-(dimethylamino)propoxy]-4-methoxyphenyl}imidazo-[1,2-a]pyridin-7-yl)-N-pentylpiperidin-4-amine]
- IC50 (A549; [4]): 2.2 µM
- IC50 (CCD-18Co; [5]): 2.1 µM
- IC50 (HCT-116; [6]): 1.7 µM
- IC50 (HFL1; [7]): 1.7 µM
- IC50 (PC14; [8]): 2.2 µM
- IC50 (SUV39H2 [2]): 0.0593 µM

SMILES: CCS(=O)(=O)N1CCCN(c2ccn3cc(-c4cc(Cl)c(OC)cc4OC)nc3c2)CC1 [Example 206, 2-(5-chloro-2,4-dimethoxyphenyl)-7-[4-(ethylsulfonyl)-1,4-diazepan-1-yl]imidazo[1,2-a]pyridine]
- IC50 (A549; [4]): 2.6 µM
- IC50 (CCD-18Co; [5]): 2.9 µM
- IC50 (HCT-116; [6]): 3.3 µM
- IC50 (HFL1; [7]): 2.3 µM
- IC50 (PC14; [8]): 1.6 µM
- IC50 (SUV39H2 [2]): 0.00561 µM

SMILES: CCOP(=O)(CCN1CC=C(c2ccn3cc(-c4cc(Cl)c(OC)cc4OC)nc3c2)CC1)OCC [Example 194, diethyl (2-(4-(2-(5-chloro-2,4-dimethoxyphenyl)imidazo[1,2-a]pyridin-7-yl)-5,6-dihydropyridin-1(2H)-yl)ethyl)phosphonate]
- IC50 (A549; [4]): 9 µM
- IC50 (CCD-18Co; [5]): 10 µM
- IC50 (HCT-116; [6]): 8.6 µM
- IC50 (HFL1; [7]): 10 µM
- IC50 (PC14; [8]): 5.7 µM
- IC50 (SUV39H2 [2]): 0.0696 µM

Reference: patent US10508109B2 (priority 2015, dated 2019)
